Assay results reported in patent publication US6479435B1, “Diaryl ethers and processes for their preparation and herbicidal and desiccant compositions containing them” (ISK Americas Incorporated, priority 1997, dated 2002).

Experiments:
Assay in all cases: Pre-emerge greenhouse herbicide test, phytotoxicity rating
Assay type in all cases: in vivo
[1] = system: lambsquarters (Chenopodium album, CHEAL); conditions: Chenopodium album, pre-emergence, 336 h, 14 days after application, rating scale 0-100; for pest or weed control at 125 g/ha: Rate 125 g al/ha; for pest or weed control at 500 g/ha: Rate 500 g al/ha
Procedure, shortened: (§1)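 Seeds sown in sandy loam mix one day before track-sprayer application of compounds in acetone at 125–1000 g ai/ha (187 l/ha), then surface-watered to incorporate and bottom-watered. Visual rating 14 days after application on a 0–100 scale (0 = no damage, 100 = all plants dead).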

[2] = system: large crabgrass (Digitaria sanguinalis, DIGSA); conditions: Digitaria sanguinalis, pre-emergence, 336 h, 14 days after application, rating scale 0-100; for pest or weed control at 125 g/ha: Rate 125 g al/ha; for pest or weed control at 500 g/ha: Rate 500 g al/ha
Procedure, shortened: as §1

[3] = system: velvetleaf (Abutilon theophrasti, ABUTH); conditions: Abutilon theophrasti, pre-emergence, 336 h, 14 days after application, rating scale 0-100; for pest or weed control at 125 g/ha: Rate 125 g al/ha; for pest or weed control at 500 g/ha: Rate 500 g al/ha
Procedure, shortened: as §1

Row | Compound | pest or weed control at 125 g/ha [1] [%] | pest or weed control at 500 g/ha [1] [%] | pest or weed control at 125 g/ha [2] [%] | pest or weed control at 500 g/ha [2] [%] | pest or weed control at 125 g/ha [3] [%] | pest or weed control at 500 g/ha [3] [%]
1 | Nn1c(C(F)(F)F)cc(=O)n(-c2cc(Oc3nc(F)c(F)cc3F)c(Cl)cc2F)c1=O [Compound 9-6, 1-Amino-3-[4-chloro-2-fluoro-5-(3,5,6-trifluoro-2-pyridyloxy)phenyl]-6-trifluoromethyl-1,2,3,4-tetrahydropyrimidine-2,4-dione] | 100 | 100 | 100 | 100 | 100 | 100
2 | N#Cc1ccc(Oc2cc(-n3c(=O)cc(C(F)(F)F)n(N)c3=O)c(F)cc2Cl)nc1 [Compound 9-10, 1-Amino-3-[4-chloro-2-fluoro-5-(5-cyano-2-pyridyloxy)phenyl]-6-trifluoromethyl-1,2,3,4-tetrahydropyrimidine-2,4-dione] | 100 | 100 | 90 | 100 | 100 | 100
3 | Nn1c(C(F)(F)F)cc(=O)n(-c2cc(Oc3ccc(Cl)cn3)c(Cl)cc2F)c1=O [Compound 9-3, 1-Amino-3-[4-chloro-2-fluoro-5-(5-chloro-2-pyridyloxy)phenyl]-6-trifluoromethyl-1,2,3,4-tetrahydropyrimidine-2,4-dione] | 100 | 100 | 95 | 100 | 100 | 100
4 | Nn1c(C(F)(F)F)cc(=O)n(-c2cc(Oc3ncccn3)c(Cl)cc2F)c1=O [Compound 9-16, 1-Amino-3-[4-chloro-2-fluoro-5-(2-pyrimidyloxy)phenyl]-6-trifluoromethyl-1,2,3,4-tetrahydropyrimidine-2,4-dione] | 100 | 100 | 100 | 100 | 100 | 100
5 | Nn1c(C(F)(F)F)cc(=S)n(-c2cc(Oc3ccc(Cl)cn3)c(Cl)cc2F)c1=O [Compound 9-28, 1-amino-3-[4-chloro-2-fluoro-5-(5-chloro-2-pyridyloxy)phenyl]-6-trifluoromethyl-1,2,3,4tetrahydro-2-oxo-4-thioxopyrimidine] | 100 | 100 | 70 | 100 | 100 | 100
6 | Nn1c(C(F)(F)F)cc(=O)n(-c2cc(Oc3cc(C(F)(F)F)ccn3)c(Cl)cc2F)c1=O [Compound 9-8, 1-Amino-3-[4-chloro-2-fluoro-5-(4-trifluoromethyl-2-pyridyloxy)phenyl]-6-trifluoromethyl-1,2,3,4-tetrahydropyrimidine-2,4-dione] | 100 | 100 | 20 | 100 | 100 | 100
7 | Nn1c(C(F)(F)F)cc(=O)n(-c2cc(Oc3cc([N+](=O)[O-])cc(C(F)(F)F)c3)c(Cl)cc2F)c1=O [Compound 9-23, 1-Amino-3-[4-chloro-2-fluoro-5-(3-nitro-5-trifluoromethylphenoxy)phenyl]-6-trifluoromethyl-1,2,3,4-tetrahydropyrimidine-2,4-dione] | 95 | 100 | 10 | 95 | 40 | 100
8 | Nn1c(C(F)(F)F)cc(=O)n(-c2cc(Oc3ccccn3)c(Cl)cc2F)c1=O [Compound 9-15, 1-amino-3-[4-chloro-2-fluoro-5-(2pyridyloxy)phenyl]-6-trifluoromethyl-1,2,3,4-tetrahydropyrimidine-2,4-dione] | 100 | 100 | 100 | 10 | 100 | 100
9 | Nn1c(C(F)(F)F)cc(=O)n(-c2cc(Oc3ccccc3[N+](=O)[O-])c(Cl)cc2F)c1=O [Compound 9-21, 1-amino-3-[4-chloro-2-fluoro-5-(2-nitrophenoxy)phenyl]-6-trifluoromethyl-1,2,3,4-tetrahydropyrimidine-2,4-dione] | 100 | 100 | 100 | 100 | 100 | 100
10 | Nn1c(C(F)(F)F)cc(=O)n(-c2cc(Oc3nccc(Cl)n3)c(Cl)cc2F)c1=O [Compound 9-17, 1-Amino-3-[4-chloro-2-fluoro-5-(4-chloro-2-pyrimidyloxy)phenyl]-6-trifluoromethyl-1,2,3,4-tetrahydropyrimidine-2,4-dione] | 100 | 100 | 30 | 100 | 100 | 100
11 | Nn1c(C(F)(F)F)cc(=O)n(-c2cc(Oc3cccc(Cl)n3)c(Cl)cc2F)c1=O [Compound 9-5, 1-Amino-3-[4-chloro-2-fluoro-5-(6-chloro-2-pyridyloxy)phenyl]-6-trifluoromethyl-1,2,3,4-tetrahydropyrimidine-2,4-dione] | 100 | 100 | 95 | 100 | 100 | 100
12 | Nn1c(C(F)(F)F)cc(=O)n(-c2cc(Oc3ccc([N+](=O)[O-])cn3)c(Cl)cc2F)c1=O [Compound 9-11, 1-Amino-3-[4-chloro-2-fluoro-5-(5-nitro-2-pyridyloxy)phenyl]-6-trifluoromethyl-1,2,3,4-tetrahydropyrimidine-2,4-dione] | 100 | 100 | 30 | 95 | 100 | 100
13 | Nn1c(C(F)(F)F)cc(=O)n(-c2cc(Oc3ncccc3C(F)(F)F)c(Cl)cc2F)c1=O [Compound 9-7, 1-Amino-3-[4-chloro-2-fluoro-5-(3-trifluoromethyl-2-pyridyloxy)phenyl]-6-trifluoromethyl-1,2,3,4-tetrahydropyrimidine-2,4-dione] | 100 | 100 | 100 | 100 | 100 | 100
14 | N#Cc1cccnc1Oc1cc(-n2c(=O)cc(C(F)(F)F)n(N)c2=O)c(F)cc1Cl [Compound 9-9, 1-Amino-3-[4-chloro-2-fluoro-5-(3-cyano-2-pyridyloxy)phenyl]-6-trifluoromethyl-1,2,3,4-tetrahydropyrimidine-2,4-dione] | 100 | 100 | 100 | 100 | 100 | 100
15 | Nn1c(C(F)(F)F)cc(=O)n(-c2cc(Oc3ccccc3)c(Cl)cc2F)c1=O [Compound 9-26, 1-Amino-3-[4-chloro-2-fluoro-5-phenoxyphenyl]-6-trifluoromethyl-1,2,3,4-tetrahydropyrimidine-2,4-dione] | 100 | 100 | 100 | 100 | 100 | 100
16 | Nn1c(C(F)(F)F)cc(=O)n(-c2cc(Oc3ccc([N+](=O)[O-])cc3C(F)(F)F)c(Cl)cc2F)c1=O [Compound 9-22, 1-Amino-3-[4-chloro-2-fluoro-5-(4-nitro-2-trifluoromethylphenoxy)phenyl]-6-trifluoromethyl-1,2,3,4-tetrahydropyrimidine-2,4-dione] | 100 | 100 | 80 | 100 | 100 | 100
17 | Nn1c(C(F)(F)F)cc(=O)n(-c2cc(Oc3ccc(Br)cn3)c(Cl)cc2F)c1=O [Compound 9-2, 1-Amino-3-[4-chloro-2-fluoro-5-(5-bromo-2-pyridyloxy)phenyl]-6-trifluoromethyl-1,2,3,4-tetrahydropyrimidine-2,4-dione] | 100 | 100 | 95 | 100 | 30 | 100
18 | Cc1nsc(Oc2cc(-n3c(=O)cc(C(F)(F)F)n(N)c3=O)c(F)cc2Cl)c1[N+](=O)[O-] [Compound 9-14, 1-Amino-3-[4-Chloro-2-fluoro-5-(3-methyl-4-nitroisothiazol-5-yloxy)phenyl]-6-trifluoromethyl-1,2,3,4-tetrahydropyrimidine-2,4-dione] | 100 | 100 | 100 | 100 | 100 | 100
